# Laboratory results published in patent publication US20240368164A1, “PURINE NUCLEOSIDES, THEIR INTERMEDIATES, AND METHODS OF PREPARATION THEREOF” (Astrocyle Pharmaceuticals, Inc., priority 2021, published 2024).
# Key:
# A3 receptor in the mouse = biological target: T1, A3 receptor in the mouse (Mus musculus, UniProt Q61618); test: Affinity at the mouse A3 receptor; type: binding
# T1 sequence (Q61618 1-319): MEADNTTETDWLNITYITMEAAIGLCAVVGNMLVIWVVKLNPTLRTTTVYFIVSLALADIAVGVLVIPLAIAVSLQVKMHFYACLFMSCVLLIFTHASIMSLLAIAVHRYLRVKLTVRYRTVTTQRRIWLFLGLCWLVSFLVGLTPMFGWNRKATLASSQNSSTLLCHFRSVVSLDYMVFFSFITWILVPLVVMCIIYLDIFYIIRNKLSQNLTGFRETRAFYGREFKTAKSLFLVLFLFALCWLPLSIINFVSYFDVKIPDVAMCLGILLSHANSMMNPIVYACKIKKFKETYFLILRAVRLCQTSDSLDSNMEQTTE
# Description: Similar competition binding assays may be conducted using HEK293 cell membranes expressing mARs using [^125I]I-AB-MECA to label A1 or A3ARs and [3H]CGS21680 to label A2AARs. IC50 values were converted to Ki values using known methods. Nonspecific binding was determined in the presence of 100 μM NECA.
# [1] = Plasma protein binding (free fraction); type: in vitro ADME, mouse
# Description: Example 3 of U.S. Pat. No. 9,789,131, which is incorporated herein by reference, describes assays for determining the plasma and brain free fraction of certain compounds such as I-1. Compounds described herein may be evaluated using such assays or similar variants thereof.
# [2] = tested on: photothrombosis-induced stroke in mice; test: Mouse photothrombotic stroke model; type: in vivo
# Description: Photothrombosis-induced Stroke: Photothrombosis is performed as described in Zheng et al 2010 (PloS One 5 (12): e14401). In brief, Rose Bengal is a fluorescent dye that when injected into the vasculature and excited, generates singlet oxygen that damages the endothelial wall and induces a local thrombosis (clot). Using this technique, mice are given a 0.1 mL tail-vein injection of sterilized Rose Bengal (RB, Sigma, U.S.A.) in artificial cerebral spinal fluid (aCSF). The RB concentration is 20 mg/mL. A cortical region is centered in the imaging field and illuminated with a green laser (543 nm, 5 mW) using a 0.8-NA 40× water-immersion objective (Nikon, Tokyo). The clot formation is monitored in real time until the targeted vessel or downstream capillaries are firmly occluded. Stable clots are subsequently identified by a non-fluorescent vessel segmentation ending with highly fluorescent regions. […] Treatments, at doses such as 0.5 μmol/kg are introduced via intraperitoneal injections (i.p.). For experiments with A3 receptor antagonist MRS1523, mice are administered intraperitoneal injections (2 mg/kg) at the 0 and 2 hour timepoints to ensure receptor antagonism throughout the course of the study.
# Animals and Photothrombosis-induced Stroke: Stroke is performed as described in Zheng et al 2010 (PloS One 5 (12): e14401). Female C57Bl/6 mice (4-6 months) are used in this study. From the methods of this manuscript: Mice are anesthetized at 3% isoflurane with 100% oxygen and subsequently maintained at 1% isoflurane through a nosecone. Depth of anesthesia is monitored and regulated according to vital signs, pinch withdrawal and eye blinks. Body temperature is maintained at 37° C. by a feedback-controlled heating pad (Gaymar T/Pump). Vital signs including oxygen saturation, respiratory rate, and heart rate are continuously monitored by using the MouseOx system (STARR Life Sciences). […]
# Post photothrombotic infarction evaluation. The size of cerebral infarcts is evaluated using 2,3,5-Triphenyltetrazolium chloride (TTC) staining as described in Zheng et al 2010 (PloS One 5 (12): e14401). […]
smiles,measurement,setting,value
"CSc1nc(N)c2ncn([C@H]3[C@H](O)[C@H](O)[C@]4(CO)C[C@H]34)c2n1 [Compound I-1, (1R,2R,3S,4R,5S)-4-(6-Amino-2-(methylthio)-9H-purin-9-yl)-1-(hydroxymethyl)bicyclo[3.1.0]hexane-2,3-diol]",difference in affinity of I-1 and Cl-IB-MECA at mouse A3 receptor,A3 receptor in the mouse; I-1 versus Cl-IB-MECA,"approximately 25,000 fold"
same,Ki,"A3 receptor in the mouse; mouse A3 receptor, read-out: affinity as agonist of the A3 receptor in the mouse",4.9 µM
same,free (unbound) fraction in plasma,[1],0.74
same,efficacy of I-1 in presence of A3 antagonist MRS1523,"[2]; mouse photothrombotic stroke and TBI models, with MRS1523",blocked
same,efficacy in mouse photothrombotic stroke model,"[2]; mouse, stroke",significant efficacy
